# Measured values: ChEMBL document CHEMBL4480429, “Discovery of (S)-6-methoxy-chroman-3-carboxylic acid (4-pyridin-4-yl-phenyl)-amide as potent and isoform selective ROCK2 inhibitors” (Bioorg Med Chem, 2019)
# Columns and labels:
# [1] = organism: Homo sapiens; assay: Selectivity ratio of IC50 for ROCK1 (unknown origin) to IC50 for ROCK2 (unknown origin)
# [2] = target: Rho-associated protein kinase 2 (Homo sapiens, UniProt O75116); assay: Inhibition of ROCK2 (unknown origin) using STK2 as substrate measured after 4 hrs by HTRF assay
# [3] = target: Rho-associated protein kinase 1 (Homo sapiens, UniProt Q13464); assay: Inhibition of ROCK1 (unknown origin) using STK2 as substrate measured after 4 hrs by HTRF assay
# Chain of Rho-associated protein kinase 1 (Q13464 whole entry): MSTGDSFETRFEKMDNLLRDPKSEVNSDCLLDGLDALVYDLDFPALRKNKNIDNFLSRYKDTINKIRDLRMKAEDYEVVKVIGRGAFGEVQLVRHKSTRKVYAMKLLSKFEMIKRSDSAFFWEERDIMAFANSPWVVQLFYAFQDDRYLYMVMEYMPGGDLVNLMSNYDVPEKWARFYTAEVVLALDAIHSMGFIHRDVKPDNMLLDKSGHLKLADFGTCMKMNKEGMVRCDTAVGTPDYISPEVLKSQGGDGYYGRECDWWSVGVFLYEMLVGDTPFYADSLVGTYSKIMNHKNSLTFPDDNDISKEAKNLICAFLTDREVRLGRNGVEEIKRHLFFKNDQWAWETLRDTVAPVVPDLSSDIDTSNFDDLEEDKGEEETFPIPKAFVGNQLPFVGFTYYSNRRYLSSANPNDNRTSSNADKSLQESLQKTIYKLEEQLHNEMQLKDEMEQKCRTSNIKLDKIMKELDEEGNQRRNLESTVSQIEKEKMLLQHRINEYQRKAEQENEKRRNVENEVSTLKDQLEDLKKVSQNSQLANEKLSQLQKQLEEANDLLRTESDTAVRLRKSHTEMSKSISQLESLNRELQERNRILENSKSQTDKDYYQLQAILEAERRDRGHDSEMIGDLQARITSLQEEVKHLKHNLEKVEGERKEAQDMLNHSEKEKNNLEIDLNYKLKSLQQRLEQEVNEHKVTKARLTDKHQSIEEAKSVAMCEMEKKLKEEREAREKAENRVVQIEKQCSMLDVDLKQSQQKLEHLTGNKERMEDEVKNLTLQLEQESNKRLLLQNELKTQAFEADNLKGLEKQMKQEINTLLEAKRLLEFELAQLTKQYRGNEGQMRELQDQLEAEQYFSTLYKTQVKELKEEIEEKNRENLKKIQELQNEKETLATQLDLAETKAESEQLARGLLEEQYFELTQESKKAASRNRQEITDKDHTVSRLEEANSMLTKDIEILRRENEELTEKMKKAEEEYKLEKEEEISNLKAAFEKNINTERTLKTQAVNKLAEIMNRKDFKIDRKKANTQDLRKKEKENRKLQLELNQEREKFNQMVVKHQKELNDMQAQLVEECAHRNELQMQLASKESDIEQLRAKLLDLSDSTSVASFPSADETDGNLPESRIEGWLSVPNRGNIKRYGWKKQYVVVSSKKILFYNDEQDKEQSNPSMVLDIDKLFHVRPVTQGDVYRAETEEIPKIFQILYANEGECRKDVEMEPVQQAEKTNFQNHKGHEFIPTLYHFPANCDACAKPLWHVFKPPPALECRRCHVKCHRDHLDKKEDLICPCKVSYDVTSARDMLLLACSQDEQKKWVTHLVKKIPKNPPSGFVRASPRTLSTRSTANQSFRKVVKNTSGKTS
# Chain of Rho-associated protein kinase 2 (O75116 whole entry): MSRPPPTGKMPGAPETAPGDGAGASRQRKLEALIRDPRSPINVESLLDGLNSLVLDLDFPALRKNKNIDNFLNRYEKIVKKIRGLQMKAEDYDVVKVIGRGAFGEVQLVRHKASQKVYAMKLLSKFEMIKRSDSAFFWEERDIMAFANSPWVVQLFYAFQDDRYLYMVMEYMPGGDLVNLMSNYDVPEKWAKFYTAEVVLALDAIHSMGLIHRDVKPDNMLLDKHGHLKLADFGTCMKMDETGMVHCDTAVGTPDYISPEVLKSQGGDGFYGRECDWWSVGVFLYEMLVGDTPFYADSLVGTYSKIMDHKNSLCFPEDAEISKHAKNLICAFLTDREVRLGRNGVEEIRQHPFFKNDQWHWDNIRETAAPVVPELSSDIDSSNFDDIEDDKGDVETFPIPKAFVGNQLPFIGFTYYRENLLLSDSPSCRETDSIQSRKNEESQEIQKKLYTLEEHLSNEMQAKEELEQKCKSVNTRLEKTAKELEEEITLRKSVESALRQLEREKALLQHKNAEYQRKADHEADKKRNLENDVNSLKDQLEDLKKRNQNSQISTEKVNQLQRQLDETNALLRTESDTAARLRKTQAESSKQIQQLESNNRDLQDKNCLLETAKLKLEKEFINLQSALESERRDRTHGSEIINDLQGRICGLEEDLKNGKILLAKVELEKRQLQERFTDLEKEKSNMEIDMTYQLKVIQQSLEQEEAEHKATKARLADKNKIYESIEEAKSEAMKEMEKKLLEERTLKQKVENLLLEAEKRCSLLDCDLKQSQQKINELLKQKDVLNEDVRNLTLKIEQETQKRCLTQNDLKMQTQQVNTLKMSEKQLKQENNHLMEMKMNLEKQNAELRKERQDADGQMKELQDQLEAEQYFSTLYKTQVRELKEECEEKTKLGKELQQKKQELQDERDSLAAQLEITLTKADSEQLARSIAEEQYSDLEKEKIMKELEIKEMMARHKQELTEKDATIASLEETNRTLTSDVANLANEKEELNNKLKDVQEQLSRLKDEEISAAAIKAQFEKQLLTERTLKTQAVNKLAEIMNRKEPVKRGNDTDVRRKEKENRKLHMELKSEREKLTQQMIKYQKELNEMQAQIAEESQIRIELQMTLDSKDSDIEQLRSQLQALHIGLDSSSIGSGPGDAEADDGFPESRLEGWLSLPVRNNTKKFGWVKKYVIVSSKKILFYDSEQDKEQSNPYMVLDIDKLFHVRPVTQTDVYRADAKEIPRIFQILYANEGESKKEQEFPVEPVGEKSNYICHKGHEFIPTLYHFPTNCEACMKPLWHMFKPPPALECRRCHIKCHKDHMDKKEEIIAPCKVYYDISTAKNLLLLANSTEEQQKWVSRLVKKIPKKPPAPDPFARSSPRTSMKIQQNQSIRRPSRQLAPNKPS
SMILES,Ratio IC50 [1],IC50 [2] [nM],IC50 [3] [nM]
COc1ccc2c(c1)C[C@@H](C(=O)Nc1ccc(-c3ccncc3)cc1OCCN(C)C)CO2,3,172,523
COc1ccc2c(c1)C[C@H](C(=O)Nc1ccc(-c3ccncc3)cc1OCCN(C)C)CO2,22.7,3,68
COc1ccc2c(c1)CC(C(=O)Nc1ccc(-c3c[nH]nc3C)cc1OCCN(C)C)CO2 (stereo not given),13.6,1.2,16.3
COc1ccc2c(c1)CC(C(=O)Nc1ccc(-c3cn[nH]c3)cc1OCCN(C)C)CO2 (stereo not given),–,–,3.4
CN(C)CCOc1cc(-c2ccncc2)ccc1NC(=O)C1COc2ccccc2C1 (stereo not given),4.3,7,30
CN(C)CCOc1cc(-c2ccncc2)ccc1NC(=O)C1COc2ccc(F)cc2C1 (stereo not given),14.8,7,104

# More lines, in order of falling IC50 [3], values ahead:
Ratio IC50 [1],IC50 [2] [nM],IC50 [3] [nM],SMILES
18.9,9,170,COc1ccc2c(c1)CC(C(=O)Nc1ccc(-c3ccncc3)cc1OCCN(C)C)CO2 (stereo not given)
7,24,169,Cc1ccc2c(c1)CC(C(=O)Nc1ccc(-c3ccncc3)cc1OCCN(C)C)CO2 (stereo not given)
6.1,22,135,CN(C)CCOc1cc(-c2ccncc2)ccc1NC(=O)C1COc2ccc(Cl)cc2C1 (stereo not given)
